Measured values published in US20120301443A1, “METHODS FOR DEVELOPING ENDOTHELIAL CELLS FROM PLURIPOTENT CELLS AND ENDOTHELIAL CELLS DERIVED” (CORNELL UNIVERSITY, priority 2009, published 2012).

How the values were obtained:
Type in all cases: cell-based, human
hVPr-GFP hESCs = assay: Endothelial (EC) differentiation of hVPr-GFP hESC embryoid bodies (phase 1)
Description: Human VPr-GFP hESCs were grown to confluence on Matrigel™ (BD Bioscience) and then incubated in 5 units/ml dispase (Gibco) until colonies were completely detached from the substrate. Human VPr-GFP EBs were washed and cultured in hESC medium on ultra low attachment plates (Corning) and cultured in the conditions described, with replacement of cytokine supplemented medium every 48 hours. Embryoid bodies were fixed in 4% paraformaldehyde and frozen for cryosectioning and staining.
Embryoid bodies were generated and cultured in base hESC medium, supplemented with the cytokines as shown. Briefly, embryoid bodies were generated in hESC base medium without FGF-2. On the morning following generation of EBs (day 0), medium was supplemented with 20 ng/ml BMP4 (R&D) (removed at day 7); on day 1, medium was supplemented with 10 ng/ml ActivinA (R&D) (removed at day 4); on day 2, medium was supplemented with 8 ng/ml FGF-2 (Peprotech) (remained for the duration of culture); on day 4, EBs were transferred to adherent conditions on Matrigel™-coated plates and medium was supplemented with 25 ng/ml VEGF-A (Peprotech) (remained for the duration of culture); […] duration. Cultures were dissociated using 0.5% Trypsin/EDTA (Gibco) or Accutase (eBioscience). Absolute yield as well as ratio of input hESCs to differentiated ECs was calculated from the number of live cells recovered from differentiation cultures at days 0, 14 and 20. Purified ECs could be frozen and thawed in 10% DMSO with greater than 90% recovery.
(§1) ECs were isolated from differentiation cultures using Magnetic Activated Cell Sorting (MACS; Miltenyi Biotech) with an antibody against CD31 conjugated to magnetic microbeads. Alternatively, cells were isolated by virtue of the expression of GFP/YFP or a fluorophore conjugated antibody to human CD31 or VEGFR2 (BD) using a FACS AriaII (BD).
Total RNA was prepared from cultured cells using the RNeasy™ extraction kit (Qiagen) and reverse transcribed using Superscript II reverse transcriptase (Invitrogen) according to the manufacturer's instructions. Relative quantitative PCR was performed on a 7500 Fast Real Time PCR System (Applied Biosystems) using either TaqMan PCR mix along with Id1 and β-actin primer pairs, or SYBR Green PCR mix (Applied Biosystems). […]
This EC reporter hESC line was also used to monitor the development of a chemically defined, serum-free methodology that could effectively augment vascular differentiation, consisting of two phases. […] Although these growth conditions promoted formation of hVPr-GFP^+ structures, the yield of dissociated hESC-derived ECs obtained by fluorescence-activated cell sorting (FACS) was low, and the few isolated ECs could not be expanded without the majority of derivatives assuming a non-EC phenotype. […]

[1] = test system: Id1-YFP hESC-derived CD31+ cells; assay: Id1-YFP hESC-derived CD31+ cells expanded with and without the TGFβ-inhibitor, flow cytometry
Description: A bacterial artificial chromosome (BAC) was modified in order to place yellow fluorescent protein (YFP) under control of the endogenous human Id1 promoter locus. This reporter construct was electroporated into the H9 hESC line, selected for BAC integration using antibiotic resistance and subcloned. Clones were assessed and selected based on expression of YFP in Id1 hESC derivatives following spontaneous differentiation. […] To track Id1 expression in live hESC differentiation cultures, a stable BAC transgenic hESC-line expressing yellow fluorescent protein driven by the Id1-promoter (Id1-YFP) (Example 3 herein) was used (FIG. 3A-C). Differentiated ECs were isolated at day 14 from Id1-YFP cultures (FIG. 1d), sub-fractionating the CD31+ population into Id1-YFP high- and low-expressing cells, and these populations were serially expanded for seven days with and without the TGFβ-inhibitor (FIG. 3B).

hESC-derived ECs [2] = assay: Absolute yield and ratio of input hESCs to differentiated ECs over phases 1 and 2
Description: (§2) Embryoid bodies were generated and cultured in base hESC medium, supplemented with the cytokines as shown. Briefly, embryoid bodies were generated in hESC base medium without FGF-2. On the morning following generation of EBs (day 0), medium was supplemented with 20 ng/ml BMP4 (R&D) (removed at day 7); on day 1, medium was supplemented with 10 ng/ml ActivinA (R&D) (removed at day 4); on day 2, medium was supplemented with 8 ng/ml FGF-2 (Peprotech) (remained for the duration of culture); on day 4, EBs were transferred to adherent conditions on Matrigel™-coated plates and medium was supplemented with 25 ng/ml VEGF-A (Peprotech) (remained for the duration of culture); on day 7, SB431542 (Tocris) was added at 10 μM concentration and remained for indicated duration. Cultures were dissociated using 0.5% Trypsin/EDTA (Gibco) or Accutase (eBioscience). Absolute yield as well as ratio of input hESCs to differentiated ECs was calculated from the number of live cells recovered from differentiation cultures at days 0, 14 and 20. Purified ECs could be frozen and thawed in 10% DMSO with greater than 90% recovery.

hESC-derived ECs [3] = assay: Expansion of isolated hESC-derived ECs with or without SB431542 (phase 2)
Description: as §2, §1
Cryosections were immunocytochemically stained as previous described (James et al., Dev. Biol. 295: 90-102 (2006)). Briefly, samples were permeabilized in PBST and blocked in 5% donkey serum. Samples were incubated for 2 hours in primary antibodies blocking solution, washed 3 times in PBS and incubated in CY3-conjugated secondary antibodies (Jackson Laboratories) for 1 hour. Following washing some sections were counterstained for nucleic acids by TO-PRO3 (Invitrogen) before mounting and imaging by confocal microscopy. Primary antibodies included CD31 (DAKO), CD34 (DAKO), Phospho-HistoneH3, Smooth Muscle Actin (SMA) (DAKO) and VE-cadherin (R&D). […]

[4] = ECs isolated at day 14, 5 days with vs without SB431542

For `NC(=O)c1ccc(-c2nc(-c3ccc4c(c3)OCO4)c(-c3ccccn3)[nH]2)cc1` [SB431542, 4-[4-(1,3-benzodioxol-5-yl)-5-(2-pyridinyl)-1H-imidazol-2-yl]benzamide], the “Oct3/4 and brachyury transcripts” value (hVPr-GFP hESCs; QPCR, normalized to ACTB, time course of differentiation) was “accelerated the reduction”, the “hVPr-GFP+ ECs when inhibitor is included from the onset of differentiation” value (hVPr-GFP hESCs; SB431542 from day 0) was “absence of hVPr-GFP+ ECs” and the “hVPr-GFP+CD31+ ECs” value (hVPr-GFP hESCs; beginning at 9 days) was “significant increase”. The “expression of SMA” value (hVPr-GFP hESCs; time course of differentiation) was “reducing expression of SMA”, the “mean fluorescence intensity of CD31” value ([1]; relative to unstimulated cells) was “decreased” and the “percentage of the CD31+ population” value ([1]; relative to unstimulated cells) was “increased”. The “Id1 expression (Id1-YFP)” value ([1]; seven days expansion with and without TGFβ-inhibitor) was “up-regulation of Id1 expression”, the “expansion in total number of vascular-committed hESC-derived ECs” value (hESC-derived ECs [2]; TGFβ inhibition in phase 1 and 2, 20 days, vs control culture conditions) was 36 fold and the “population maintaining EC identity” value (hESC-derived ECs [2]; after phase 1 and phase 2 TGFβ-inhibition) was 95%. The “ratio of ECs generated from every one hESC input” value (hESC-derived ECs [2]; over the course of 20 days) was 7.4 ECs per input hESC, the “cell yield of isolated ECs” value (hESC-derived ECs [3]; ECs isolated at day 14, 5-day culture period with vs without SB431542) was “yielded more cells” and the “cell proliferation, percentage of Phospho-HistoneH3+ (PHH3) mitotic ECs” value (hESC-derived ECs [3]; [4]) was “increased cell proliferation”. The “percentage of total population retaining α-SMA− CD31+ VEcadherin+ phenotype” value (hESC-derived ECs [3]; [4]) was “higher percentage”.
